Measured values published in patent US20250171420A1 (Monte Rosa Therapeutics, Inc., priority 2022, published 2025).

Experiments:
[1] = molecular target: T1, CK1α (Homo sapiens, UniProt P48729); experiment: CK1α NanoBit Assay (HiBiT-tagged CSNK1A1, HEK293 clonal lines); assay type: cell-based; conditions: HEK293 HiBiT-CSNK1A1/LgBiT cells, 24 h incubation
T1 construct: HEK293 clonal lines with CRISPR KI HiBiT tag on CSNK1A1
Procedure, shortened: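 HEK293 clones carrying a CRISPR knock-in HiBiT tag on CSNK1A1 and stably expressing LgBiT are treated with compound for 24 hours at 37° C, 5% CO2, then read by luminescence. Response is normalized as 100*(S−N)/(P−N) against plate negative and positive controls, and DC50 values are derived.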

[2] = molecular target: CRBN/DDB1 (Homo sapiens, UniProt Q96SW2); experiment: HTRF binding assay (displacement of Cy5-thalidomide probe from CRBN/DDB1); conditions: CRBN/DDB1 2.5 nM, Cy5-Thalidomide 100 nM, 30 min; geometric mean; read-out: HTRF_Thali_Disp_DR_geo_IC50
From the text: Binding of test compounds to CRBN/DDB1 was monitored in an HTRF assay using 1-[5-({2-[2-(2-{[2-(2,6-dioxopiperidin-3-yl)-1,3-dioxo-2,3-dihydro-1H-isoindol-4-yl]oxy}acetamido)ethoxy]ethyl}carbamoyl)pentyl]-3,3-dimethyl-2-[(1E,3E)-5-[(2E)-1,3,3-trimethyl-5-sulfo-2,3-dihydro-1H-indol-2-ylidene]penta-1,3-dien-1-yl]-3H-indol-1-ium-5-sulfonate as a fluorescent probe. In this assay, compounds displace the fluorescently labeled thalidomide-based probe bound to CRBN and fluorescence is monitored with increasing compound concentration. Assays were conducted in Greiner white 384 well HiBase plates (Cat. No 784075-25) in 10 μL total volume. A one pot detection solution of CRBN/DDB1 (2.5 nM), anti-His Terbium Cryptate Gold (1×, PerkinElmer Cat. #: 61HI2TLB), and Cy5-Thalidomide (100 nM, Tenova Cat.: T52461) was prepared in 20 mM HEPES, 20 mM NaCl, 0.2 mM TCEP, 0.2 mM EDTA, and 0.005% Tween20 was dispensed to each assay plate. Test compounds were stored in dry, ambient temperatures at 10 mM. A 10-point, 1:3 dilution series was prepared from 10 mM stock concentrations in Echo-compatible LDV plates. 10 nL of each compound dilution series was dispensed into assays wells using an Echo 650 (Labcyte inc. USA). 10 nL of 10 mM lenalidomide (Selleckchem Cat no. S1029) was transferred into the active-control wells for the assay and 10 nL of DMSO was transferred into the negative control wells. The assay was then allowed to incubate for 30 min at ambient temperature after transferring the test compounds. Plate measurements were taken on a Pherastar FSX (BMG Labtech, Germany) using the HTRF Red filter (Ex. 337 nm, em1: 620 nm, em2: 665 nm) (Flashes: 50, Integration time: 60-400 μs, Z-height: 10 mm, Ratio-multiplier: 10,000). Analysis, HTRF ratio and IC50 values were derived using KNIME analytics (KNIME Zurich) transformation and fitting within Collaborative Drug Discovery (Collaborative Drug Discovery USA) using a 4-parameter logistic fit. HTRF ratio calculation was performed using the following formula: […]
where Y represents the HTRF ratio response (as defined previously), X the compound concentration in μM, Ymin the minimum response plateau, Ymax the maximum response plateau, IC50 the concentration of agonist that gives a response half way between Ymin and Ymax and HillSlope the steepness of the family of curves. No fitting model constraints was applied on Ymin, or Ymax whilst IC50>0 and −0.5>HillSlope>−3
Ki values were derived from the geometric mean of the IC50 values using the Cheng-Prusoff transformation:
where [L] represents the concentration of fluorescent probe in μM, Kd the affinity (binding constant) of the fluorescent probe in units of μM and IC50 the concentration of agonist that gives a response halfway between Ymin and Ymax (as described in 1.2.1)
Analysis and IC50 values were derived using KNIME analytics (KNIME, Zurich) transformation and fitting within Collaborative Drug Discovery (Collaborative Drug Discovery, USA) as described in 1.2.1. Ki values were derived from the geometric mean of the IC50 values using the Cheng-Prusoff transformation as described in 2.2.2. Data was visualized in GraphPad Prism 8.1.2 (GraphPad, USA) and reported as mean and standard deviation. Microsoft Office Excel 2012 (Redmond, WA) was used for calculation of mean and standard deviation.
IC50 data are reported in Table 3 for compounds in Table 1. In Table 3 below, According to the code, A represents a IC50 value of ≤0.1 μM, B represents a IC50 value>0.1 μM and ≤1 μM, C represents an IC50 value>1 μM.

Sequence of CRBN/DDB1 (Q96SW2 whole entry, species assumed): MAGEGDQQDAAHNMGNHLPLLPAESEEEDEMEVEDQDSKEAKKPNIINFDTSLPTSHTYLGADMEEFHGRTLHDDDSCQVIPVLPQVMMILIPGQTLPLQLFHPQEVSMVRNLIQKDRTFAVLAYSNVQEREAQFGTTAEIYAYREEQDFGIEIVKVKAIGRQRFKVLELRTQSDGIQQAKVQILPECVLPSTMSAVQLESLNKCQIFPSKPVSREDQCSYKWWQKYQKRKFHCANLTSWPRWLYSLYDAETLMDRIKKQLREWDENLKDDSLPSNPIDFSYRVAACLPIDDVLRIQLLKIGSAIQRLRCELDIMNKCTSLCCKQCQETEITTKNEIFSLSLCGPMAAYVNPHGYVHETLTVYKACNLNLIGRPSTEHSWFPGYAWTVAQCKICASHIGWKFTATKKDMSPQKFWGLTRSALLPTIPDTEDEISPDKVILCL
Sequence of CRBN/DDB1 (Q16531 whole entry partner, species assumed): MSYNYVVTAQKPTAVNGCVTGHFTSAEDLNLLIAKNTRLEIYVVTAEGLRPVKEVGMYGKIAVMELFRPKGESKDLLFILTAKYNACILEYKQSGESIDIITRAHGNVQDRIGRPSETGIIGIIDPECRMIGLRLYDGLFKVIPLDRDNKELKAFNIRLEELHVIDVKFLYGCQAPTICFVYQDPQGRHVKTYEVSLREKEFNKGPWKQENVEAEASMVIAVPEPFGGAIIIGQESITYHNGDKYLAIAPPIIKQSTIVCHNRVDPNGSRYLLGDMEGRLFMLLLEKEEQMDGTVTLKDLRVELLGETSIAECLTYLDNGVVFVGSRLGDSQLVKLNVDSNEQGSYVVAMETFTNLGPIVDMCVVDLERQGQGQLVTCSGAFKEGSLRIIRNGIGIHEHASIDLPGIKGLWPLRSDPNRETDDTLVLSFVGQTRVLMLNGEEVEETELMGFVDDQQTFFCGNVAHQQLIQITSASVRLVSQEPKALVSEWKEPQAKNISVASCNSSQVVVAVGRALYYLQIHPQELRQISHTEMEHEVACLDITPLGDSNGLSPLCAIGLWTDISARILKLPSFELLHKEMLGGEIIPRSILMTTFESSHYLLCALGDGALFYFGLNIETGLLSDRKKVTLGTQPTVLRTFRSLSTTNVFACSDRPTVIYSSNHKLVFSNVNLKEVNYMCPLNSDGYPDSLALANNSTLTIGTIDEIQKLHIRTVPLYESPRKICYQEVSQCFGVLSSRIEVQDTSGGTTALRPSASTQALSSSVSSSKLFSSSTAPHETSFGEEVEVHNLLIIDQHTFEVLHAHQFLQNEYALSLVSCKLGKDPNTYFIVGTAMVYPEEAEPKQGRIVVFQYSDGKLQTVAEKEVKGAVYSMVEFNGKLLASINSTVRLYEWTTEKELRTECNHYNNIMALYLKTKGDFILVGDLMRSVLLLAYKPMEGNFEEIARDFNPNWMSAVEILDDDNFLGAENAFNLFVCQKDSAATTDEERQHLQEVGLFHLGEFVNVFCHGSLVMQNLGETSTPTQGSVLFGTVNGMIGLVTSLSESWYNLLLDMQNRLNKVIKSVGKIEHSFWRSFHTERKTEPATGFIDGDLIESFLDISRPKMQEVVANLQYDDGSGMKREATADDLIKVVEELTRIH
T1 sequence (P48729 whole entry): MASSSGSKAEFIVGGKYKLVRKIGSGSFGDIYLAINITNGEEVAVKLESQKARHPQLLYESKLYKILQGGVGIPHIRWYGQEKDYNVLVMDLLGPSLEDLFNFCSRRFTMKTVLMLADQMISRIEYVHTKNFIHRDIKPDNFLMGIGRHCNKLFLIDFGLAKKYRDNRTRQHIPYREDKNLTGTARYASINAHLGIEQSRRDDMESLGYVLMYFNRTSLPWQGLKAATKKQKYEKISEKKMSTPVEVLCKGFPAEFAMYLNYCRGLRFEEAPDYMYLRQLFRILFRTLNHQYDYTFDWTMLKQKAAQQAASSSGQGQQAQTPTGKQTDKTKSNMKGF
T1 sequence (Q96SW2 whole entry, further chain): as the sequence (Q96SW2 whole entry, species assumed) above
T1 sequence (Q16531 2-1140 partner limits assumed): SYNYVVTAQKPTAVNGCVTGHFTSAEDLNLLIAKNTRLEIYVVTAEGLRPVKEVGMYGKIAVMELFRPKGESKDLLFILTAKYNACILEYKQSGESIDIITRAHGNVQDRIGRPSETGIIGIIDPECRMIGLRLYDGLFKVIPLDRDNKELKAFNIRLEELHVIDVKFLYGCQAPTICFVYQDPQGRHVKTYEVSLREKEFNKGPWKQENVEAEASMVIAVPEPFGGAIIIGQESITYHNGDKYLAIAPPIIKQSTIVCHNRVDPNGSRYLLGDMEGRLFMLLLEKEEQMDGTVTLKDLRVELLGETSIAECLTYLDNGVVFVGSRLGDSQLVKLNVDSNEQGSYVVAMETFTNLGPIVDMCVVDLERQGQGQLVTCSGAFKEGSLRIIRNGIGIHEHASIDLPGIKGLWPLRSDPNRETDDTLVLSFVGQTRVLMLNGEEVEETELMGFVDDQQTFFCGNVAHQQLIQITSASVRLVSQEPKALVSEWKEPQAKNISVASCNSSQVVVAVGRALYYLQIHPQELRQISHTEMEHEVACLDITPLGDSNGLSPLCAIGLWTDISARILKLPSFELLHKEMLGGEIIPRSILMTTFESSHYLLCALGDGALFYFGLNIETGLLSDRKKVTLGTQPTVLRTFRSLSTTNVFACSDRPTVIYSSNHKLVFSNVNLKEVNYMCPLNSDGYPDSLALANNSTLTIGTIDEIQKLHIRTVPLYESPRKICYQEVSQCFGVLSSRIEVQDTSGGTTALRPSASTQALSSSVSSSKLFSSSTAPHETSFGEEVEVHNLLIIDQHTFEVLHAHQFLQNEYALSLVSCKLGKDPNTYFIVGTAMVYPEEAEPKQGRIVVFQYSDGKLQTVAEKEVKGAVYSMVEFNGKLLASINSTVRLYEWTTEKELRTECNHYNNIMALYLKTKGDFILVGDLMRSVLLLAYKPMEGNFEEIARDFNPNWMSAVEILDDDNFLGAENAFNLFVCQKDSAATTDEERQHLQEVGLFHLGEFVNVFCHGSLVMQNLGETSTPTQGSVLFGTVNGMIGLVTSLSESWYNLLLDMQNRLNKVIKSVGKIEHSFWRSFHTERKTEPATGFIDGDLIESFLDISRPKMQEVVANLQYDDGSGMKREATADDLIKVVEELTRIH

| Compound | DC50 [1] | IC50 [2] |
| --- | --- | --- |
| CNC[C@@H]1Cc2ccccc2N1C(=O)Nc1ccc2c(c1)CN(C1CCC(=O)NC1=O)C2=O (stereo partly drawn) [Compound 312, (2S)—N-(2-(2,6-dioxopiperidin-3-yl)-1-oxoisoindolin-5-yl)-2-((methylamino)methyl)indoline-1-carboxamide] | 0.1 to 1 µM | 100 to 1000 nM |
| O=C1CCC(N2Cc3cc(NC(=O)N4CCc5cccc(C(F)(F)F)c54)ccc3C2=O)C(=O)N1 (stereo not shown) [Compound 117, N-(2-(2,6-dioxopiperidin-3-yl)-1-oxoisoindolin-5-yl)-7-(trifluoromethyl)indoline-1-carboxamide] | 0.1 to 1 µM | 100 to 1000 nM |
| C[C@@H]1Cc2ccccc2N1C(=O)Nc1cc2c(cc1F)C(=O)N(C1CCC(=O)NC1=O)C2 (stereo partly drawn) [Compound 293, (2R)—N-(2-(2,6-dioxopiperidin-3-yl)-6-fluoro-1-oxoisoindolin-5-yl)-2-methylindoline-1-carboxamide] | < 0.1 µM | 100 to 1000 nM |
| O=C1CCC(N2Cc3cc(NC(=O)N4c5cccc(F)c5CC45COC5)ccc3C2=O)C(=O)N1 (stereo not shown) [Compound 304, N-(2-(2,6-dioxopiperidin-3-yl)-1-oxoisoindolin-5-yl)-4-fluorospiro[indoline-2,3′-oxetane]-1-carboxamide] | < 0.1 µM | 100 to 1000 nM |
| O=C1CCC(N2Cc3cc(NC(=O)N4c5ccc(F)cc5CC45COC5)ccc3C2=O)C(=O)N1 (stereo not shown) [Compound 306, N-(2-(2,6-dioxopiperidin-3-yl)-1-oxoisoindolin-5-yl)-5-fluorospiro[indoline-2,3′-oxetane]-1-carboxamide] | < 0.1 µM | 100 to 1000 nM |
| O=C1CCC(N2Cc3cc(NC(=O)N4CC5(CCOC5)c5ccccc54)ccc3C2=O)C(=O)N1 (stereo not shown) [Compound 317, N-(2-(2,6-dioxopiperidin-3-yl)-1-oxoisoindolin-5-yl)-4,5-dihydro-2H-spiro[furan-3,3′-indoline]-1′-carboxamide] | < 0.1 µM | 100 to 1000 nM |
| O=C1CCC(N2Cc3cc(NC(=O)N4c5ccccc5CC45COC5)ccc3C2=O)C(=O)N1 (stereo not shown) [Compound 322, N-(2-(2,6-dioxopiperidin-3-yl)-1-oxoisoindolin-5-yl)spiro[indoline-2,3′-oxetane]-1-carboxamide] | < 0.1 µM | 100 to 1000 nM |
| CC(C)C1CN(C(=O)Nc2ccc3c(c2)CN(C2CCC(=O)NC2=O)C3=O)c2ccccc21 (stereo not shown) [Compound 203, N-(2-(2,6-dioxopiperidin-3-yl)-1-oxoisoindolin-5-yl)-3-isopropylindoline-1-carboxamide] | < 0.1 µM | 100 to 1000 nM |
| O=C1CCC(N2Cc3cc(NC(=O)N4CCc5ccc(C6CC6)cc54)ccc3C2=O)C(=O)N1 (stereo not shown) [Compound 291, 6-cyclopropyl-N-(2-(2,6-dioxopiperidin-3-yl)-1-oxoisoindolin-5-yl)indoline-1-carboxamide] | < 0.1 µM | 100 to 1000 nM |
| O=C1CCC(N2Cc3cc(NC(=O)N4CCc5cc(C6CCOCC6)ccc54)ccc3C2=O)C(=O)N1 (stereo not shown) [Compound 349, N-(2-(2,6-dioxopiperidin-3-yl)-1-oxoisoindolin-5-yl)-5-(tetrahydro-2H-pyran-4-yl)indoline-1-carboxamide] | < 0.1 µM | 100 to 1000 nM |
| O=C1CCC(N2Cc3cc(NC(=O)N4c5cccc(F)c5C[C@H]4COCC(F)(F)F)ccc3C2=O)C(=O)N1 (stereo partly drawn) [Compound 300, (2S)—N-(2-(2,6-dioxopiperidin-3-yl)-1-oxoisoindolin-5-yl)-4-fluoro-2-((2,2,2-trifluoroethoxy)methyl)indoline-1-carboxamide] | < 0.1 µM | 100 to 1000 nM |

Other lines, results leading:

| DC50 [1] | IC50 [2] | Compound |
| --- | --- | --- |
| < 0.1 µM | 100 to 1000 nM | N#Cc1ccc2c(c1)N(C(=O)Nc1ccc3c(c1)CN(C1CCC(=O)NC1=O)C3=O)CC2 (stereo not shown) [Compound 115, 6-cyano-N-(2-(2,6-dioxopiperidin-3-yl)-1-oxoisoindolin-5-yl)indoline-1-carboxamide] |
| < 0.1 µM | 100 to 1000 nM | COCC1c2ccc(C(F)(F)F)cc2CN1C(=O)Nc1ccc2c(c1)CN(C1CCC(=O)NC1=O)C2=O (stereo not shown) [Compound 324, N-(2-(2,6-dioxopiperidin-3-yl)-1-oxoisoindolin-5-yl)-1-(methoxymethyl)-5-(trifluoromethyl)isoindoline-2-carboxamide] |
| < 0.1 µM | 100 to 1000 nM | CCc1cccc2c1N(C(=O)Nc1ccc3c(c1)CN(C1CCC(=O)NC1=O)C3=O)CC2 (stereo not shown) [Compound 162, N-(2-(2,6-dioxopiperidin-3-yl)-1-oxoisoindolin-5-yl)-7-ethylindoline-1-carboxamide] |
| 0.1 to 1 µM | 100 to 1000 nM | NC[C@@H]1Cc2ccccc2N1C(=O)Nc1ccc2c(c1)CN(C1CCC(=O)NC1=O)C2=O (stereo partly drawn) [Compound 310, (2S)-2-(aminomethyl)-N-(2-(2,6-dioxopiperidin-3-yl)-1-oxoisoindolin-5-yl)indoline-1-carboxamide] |
| < 0.1 µM | 100 to 1000 nM | O=C1CCC(N2Cc3cc(NC(=O)N4CCc5cccc(Cl)c54)ccc3C2=O)C(=O)N1 (stereo not shown) [Compound 152, 7-chloro-N-(2-(2,6-dioxopiperidin-3-yl)-1-oxoisoindolin-5-yl) indoline-1-carboxamide] |
| > 1 µM | 100 to 1000 nM | N#Cc1cccc2c1N(C(=O)Nc1ccc3c(c1)CN(C1CCC(=O)NC1=O)C3=O)CC2 (stereo not shown) [Compound 147, 7-cyano-N-(2-(2,6-dioxopiperidin-3-yl)-1-oxoisoindolin-5-yl)indoline-1-carboxamide] |
| < 0.1 µM | 100 to 1000 nM | COCC1c2ccc(C)cc2CN1C(=O)Nc1ccc2c(c1)CN(C1CCC(=O)NC1=O)C2=O (stereo not shown) [Compound 331, N-(2-(2,6-dioxopiperidin-3-yl)-1-oxoisoindolin-5-yl)-1-(methoxymethyl)-5-methylisoindoline-2-carboxamide] |
| < 0.1 µM | 100 to 1000 nM | COC[C@H]1CN(C(=O)Nc2ccc3c(c2)CN(C2CCC(=O)NC2=O)C3=O)c2ccc(C(F)(F)F)cc21 (stereo partly drawn) [Compound 319, (3R)—N-(2-(2,6-dioxopiperidin-3-yl)-1-oxoisoindolin-5-yl)-3-(methoxymethyl)-5-(trifluoromethyl)indoline-1-carboxamide] |
| < 0.1 µM | 100 to 1000 nM | COC[C@@H]1Cc2c(cccc2C(F)(F)F)N1C(=O)Nc1ccc2c(c1)CN(C1CCC(=O)NC1=O)C2=O (stereo partly drawn) [Compound 325, (2S)—N-(2-(2,6-dioxopiperidin-3-yl)-1-oxoisoindolin-5-yl)-2-(methoxymethyl)-4-(trifluoromethyl)indoline-1-carboxamide] |
| < 0.1 µM | 100 to 1000 nM | COCC1c2ccc(C(F)F)cc2CN1C(=O)Nc1ccc2c(c1)CN(C1CCC(=O)NC1=O)C2=O (stereo not shown) [Compound 299, 5-(difluoromethyl)-N-(2-(2,6-dioxopiperidin-3-yl)-1-oxoisoindolin-5-yl)-1-(methoxymethyl)isoindoline-2-carboxamide] |
| < 0.1 µM | 100 to 1000 nM | COCC1c2cc(C3CC3)ccc2CN1C(=O)Nc1ccc2c(c1)CN(C1CCC(=O)NC1=O)C2=O (stereo not shown) [Compound 333, 6-cyclopropyl-N-(2-(2,6-dioxopiperidin-3-yl)-1-oxoisoindolin-5-yl)-1-(methoxymethyl)isoindoline-2-carboxamide] |
| < 0.1 µM | 100 to 1000 nM | CC1c2ccccc2N(C(=O)Nc2ccc3c(c2)CN(C2CCC(=O)NC2=O)C3=O)C1C (stereo not shown) [Compound 123, N-(2-(2,6-dioxopiperidin-3-yl)-1-oxoisoindolin-5-yl)-2,3-dimethylindoline-1-carboxamide] |
